Data set [1] deals with monolayer culture of ATDC5 cells. Description: Monolayer culture of ATDC5 cells, GAG deposition. In kind it is cell-based, mouse. Particulars: monolayer instead of micromass.
Another data set deals with ATDC5 micromass. Description: Dose response of CDK8 inhibitors on ATDC5 micromass (alizarin red / alcian blue). It counts as cell-based, mouse. To be noted: all concentrations (10 μM down to 0.1 nM), day 14. How it is done: In brief, 2 μl micromasses were seeded in a 96-well plate and cultured as previous in the presence of BI1347 and additional CDK8i compounds namely BRD6989, AS2863619, SEL120-34A, MSC2530818 and CCT251545. Compound concentrations were titrated 10-fold from 10 μM down to 0.1 nM. On day 14 micromasses were fixed, stained and subsequently leached to allow for dose response analysis to be conducted.
In brief, 2 μl micromasses were seeded on a 96-well plate and cultured as previous in the presence of BI1347 and additional Mediator kinase inhibitor compounds namely BRD6989, AS2863619, SEL120-34A, MSC2530818 and CCT251545. Compound concentrations were titrated 10-fold from 10 μM down to 0.1 nM. On day 14 micromasses were fixed, stained and subsequently leached to allow for dose response analysis to be conducted.

Data set [2] relates to MC3T3 (subclone 14) osteoblast-like cells. Description: MC3T3 osteoblast-like cell mineralisation (alizarin red). In kind it is cell-based. How it is done: 2×10^4 MC3T3 (subclone 14) osteoblast-like cells were seeded on a 24-well plate and cultured for 2 days in osteoblast growth media (Alpha-MEM supplemented with 10% FBS, 1% Ab/Am) before induction of differentiation with osteoblast differentiation media (Alpha-MEM, 10% FBS, 1% Ab/Am, 50 μg/ml ascorbic acid, 5 mM β-glycerophosphate) in the presence of 1 μM BI1347 or DMSO, with media changes every 2-3 days.
Another MC3T3 differentiation method was also carried out with MSC2530818 treatment. Briefly, MC3T3 cells were seeded as above and differentiated for 7 days in osteogenic induction media (Alpha-MEM, 10% FBS, 1% Ab/Am, 50 μg/ml ascorbic acid) with DMSO or 100 nM MSC2530818, before switching to osteogenic induction media with 2 mM β-glycerophosphate in the presence of 100 nM MSC2530818 or DMSO.
Cells were fixed in 95% ice-cold methanol and stained with 1% Alizarin Red on day 7, 10 and 14 of culture for BI1347 and on day 14 only for MSC2530818 treated cells to observe effects of compounds on mineralization compared to DMSO control. Alizarin red stain was leached and measured as previously described.

The subject of a further data set is MC3T3 cells. Description: MC3T3 cell viability assay (resazurin). In kind it is cell-based. Particulars: 1 μM, day 7 and 14. How it is done: To determine potential toxicity of CDK8i on MC3T3 cells, a cell viability assay was carried out on day 7 and 14 of MC3T3 cells treated with 1 μM BI1347. Briefly, culture media was replaced with differentiation media containing 0.2 mM resazurin dye and incubated for 2 hours at 37° C. before measurement at 570 nm normalized to 600 nm.
In general terms: Alamar Blue is a resazurin reagent that responds to reducing activity.

The test system of data set [3] is ATDC5 micromasses. Description: Dose response of CDK8i on genes of interest in hypertrophic ATDC5 micromasses. In kind it is cell-based, mouse. Particulars: for gene expression of OA protective genes (TIMP4, MATN3, SMOC2, CNMD) / gene expression of hypertrophic/mineralised matrix marker IBSP: 1 μM, 100 nM or 10 nM, 14 day hypertrophic differentiation, vs DMSO; for dose response in gene expression: efficacy down to: 14 days differentiation to hypertrophy. Here is the method: To confirm that the gene expression profile observed in the day 7 RNAseq dataset was reproducible in hypertrophic cells, we selected genes of interest from the RNAseq dataset and analysed gene expression analysis on hypertrophic ATDC5 cells. 2.7×10^5 ATDC5 cells were cultured in 10 μl micromasses in the presence of BI1347 and MSC2530818 at concentrations 1 μM, 100 nM, 10 nM and DMSO control for 7 days in differentiation media before switching to mineralisation media for 7 days. On day 14 cells were processed for qPCR analysis as previously described.

In data set [4] the test system is ATDC5 micromasses. Description: Phased dosing of CDK8i on ATDC5 micromasses (alcian blue / alizarin red). Particulars: 1 μM, phased dosing 2, 4, 6, 9, 11, 14 days, read day 14; all timepoints. It counts as cell-based, mouse. How it is done:
To understand the longevity of the CDK8i effect observed with BI1347 and MSC2530818, ATDC5 micromasses were exposed to a phased dosing regimen. This consisted of treating standard 10 μl ATDC5 micromasses with differentiation media containing 1 μM of BI1347 or MSC2530818 for 2 days before switching to control differentiation media for the remaining culture period ending on day 14 of differentiation. This was repeated for 4, 6, 9, 11 and 14 days of treatment. On day 14, cells were fixed and stained with alizarin red or alcian blue as previously described.

Data set [5] relates to THP-1 derived macrophages. Description: LPS stimulated THP-1 derived macrophages: IL-1β ELISA of supernatant. In kind it is cell-based, human. Particulars: 100 nM, LPS 24 hrs. Here is the method:
THP-1 monocytes were differentiated into macrophages via treatment with 50 ng/ml phorbol 12-myristate 13-acetate (PMA) in THP-1 growth media (RPMI-1640, 100 μg/ml Primocin, 10% FBS, 0.05 mM β-mercaptoethanol) for 48 hours. Macrophages were then washed twice to remove PMA containing media before a 1-hour pretreatment with 1 μM BI1347 or 100 nM MSC2530818. Inflammatory stimulation was then initiated via the addition of lug/ml lipopolysaccharide (LPS) for 24 hours in the presence of 1 μM BI1347 or 100 nM MSC2530818. Gene expression analysis was subsequently carried out as previously outlined. For MSC2530818 treated/LPS stimulated cells, media supernatant was used for IL-1β cytokine analysis quantification via ELISA (PeproTech, ABTS Human IL-1β development ELISA) as per manufacturer instructions.
(An ELISA detects its analyte on a solid surface through an enzyme-linked reagent.)

The values that follow come from US20250312320A1, “METHOD AND TREATMENT FOR OSTEOARTHRITIS AND DISEASES OF CHONDROCYTE HYPERTROPHY” (The Royal Veterinary College, priority 2022, published 2025).

Entries after “also recorded” stand apart in the source; their conditions may differ.

For `CN(C)C(=O)Cn1cc(-c2ccc(-c3cncc4ccccc34)cc2)cn1` [BI1347], in data set [1], the “changes in GAG deposition” value was “not seen”. Besides, the “alcian blue staining (GAG deposition)” value in the data set on ATDC5 micromass is “maintained”. For the same compound, in data set [2] (1 μM, over 14 days culture), the “mineralisation by alizarin red stain vs DMSO” value (“mineralisation … vs DMSO” below) is listed as “completely inhibited mineralisation; also recorded: reduced mineralisation”. For the same compound, the “cell viability (resazurin) vs DMSO” value with MC3T3 cells is listed as “no difference in absorbance; also recorded: no toxicity observed”. Besides, in the data set with ATDC5 micromasses [3], the “gene expression of OA protective genes (TIMP4, MATN3, SMOC2, CNMD)” value is recorded as “dose dependent increase”; the “gene expression of hypertrophic/mineralised matrix marker IBSP” value is recorded as “dose dependent decrease”; the “dose response in gene expression: efficacy down to” value amounted to 10 nM. Also, in the data set on ATDC5 micromasses [4], the “Glycosaminoglycan (GAG) deposition (leached alcian blue absorbances) vs DMSO” value is reported as “increase in GAG deposition” and the “Mineralization (leached alizarin red absorbances) vs DMSO” value is listed as “decrease in mineralisation”.

Turning to `Cc1n[nH]c2ncc(C(=O)N3CCC[C@H]3c3ccc(Cl)cc3)cc12` [MSC2530818], the “changes in GAG deposition” value in data set [1] is given as “not seen”. Also, in the data set with ATDC5 micromass, the “alcian blue staining (GAG deposition)” value was “maintained”. In data set [2] (100 nM, 14 days (AA day 0-7, AA + 2 mM BGP day 7-14)), the “mineralisation … vs DMSO” value is “mineralisation was ablated”. For the same compound, the “mineralisation … vs DMSO” value in data set [2] (100 nM, 14 days (AA day 0-7, AA + 2 mM BGP day 7-14), listed as MSC) is on record as “ablation of mineralization”. The “IL1β production / secretion into culture media, reduction” value in data set [5] is on record as 1.5 fold. Besides, in the data set with ATDC5 micromasses [3], the “gene expression of OA protective genes (TIMP4, MATN3, SMOC2, CNMD)” value is reported as “dose dependent increase”; the “gene expression of hypertrophic/mineralised matrix marker IBSP” value is “dose dependent decrease”; the “dose response in gene expression: efficacy down to” value is listed as 10 nM. In the data set with ATDC5 micromasses [4], the “Glycosaminoglycan (GAG) deposition (leached alcian blue absorbances) vs DMSO” value is “increase in GAG deposition” and the “Mineralization (leached alizarin red absorbances) vs DMSO” value was “decrease in mineralisation”.
